In US11389415B2, “Methods of regulating cannabinoid receptor activity-related disorders and diseases” (The United States of America as represented by the …, priority 2012, dated 2022):
Where two headings read alike, the source gives them in different places.

Assays:
[1] = tested on: MDAMB231; assay: tumor cell growth, MDAMB231; settings: Homo sapiens, MDA-MB-231, read-out: IC50 (uM), MDAMB231 (Breast C)
[2] = tested on: LN-18; assay: tumor cell growth, LN-18; settings: Homo sapiens, LN-18, read-out: IC50 (uM), LN-18 (CNS)
[3] = tested on: MCF7; assay: tumor cell growth, MCF7; settings: Homo sapiens, MCF7, read-out: IC50 (uM), MCF7 (Breast C)
[4] = tested on: HEP3B; assay: [3H]-Thymidine incorporation in 96-well plates (Thy), HEP3B; settings: Homo sapiens, Hep3B, read-out: IC50 (uM), HEP3B (Liver Cancer)
[5] = tested on: HEPG2; assay: tumor cell growth, HEPG2; settings: Homo sapiens, HepG2, read-out: IC50 (uM), HEPG2 (Liver C)
[6] = tested on: A549; assay: tumor cell growth, A549; settings: Homo sapiens, A549, read-out: IC50 (uM), A549 (NSCLC)
[7] = tested on: NCIH460; assay: Thymidine (Thy) 96 well, NCIH460; settings: Homo sapiens, read-out: IC50 (uM), NCIH460 (NSCLC)
[8] = tested on: PC3; assay: [3H]-Thymidine incorporation in 96-well plates (Thy), PC3; settings: Homo sapiens, read-out: IC50 (uM), PC3 (Prostrate Cancer)
[9] = tested on: A172; assay: tumor cell growth, A172; settings: Homo sapiens, A 172, read-out: IC50 (uM), A172 (CNS)
[10] = tested on: HT29; assay: Thymidine (Thy) 96 well, HT29; settings: Homo sapiens, read-out: IC50 (uM), HT29 (Colon Cancer)
[11] = tested on: PC3; assay: tumor cell growth (CTG), PC3; settings: Homo sapiens
[12] = tested on: LN-229; assay: tumor cell growth (CTG), LN-229 / LN229; settings: Homo sapiens
[13] = tested on: PANC-1; assay: tumor cell growth, PANC-1; settings: Homo sapiens, PANC-1, read-out: IC50 (uM), PANC-1 (Pancreatic C)
[14] = tested on: Du-145; assay: tumor cell growth, Du-145; settings: Homo sapiens, DU-145, read-out: IC50 (uM), Du-145 (Prostate C)
[15] = tested on: U118; assay: tumor cell growth, U118; settings: read-out: IC50 (uM), U118 (CNS)
[16] = tested on: HCT116; assay: tumor cell growth (CTG), HCT116; settings: Homo sapiens
[17] = tested on: HCT116; assay: Thymidine (Thy) 96 well, HCT116; settings: Homo sapiens, read-out: IC50 (uM), HCT116 (Colon Cancer)
[18] = tested on: H460; assay: tumor cell growth (CTG), H460 / NCIH460; settings: Homo sapiens
[19] = tested on: GL261; assay: tumor cell growth, GL261; settings: Mus musculus, GL261, read-out: IC50 (uM), GL261 (CNS)
[20] = tested on: U251; assay: tumor cell growth, U251; settings: Homo sapiens, U-251, read-out: IC50 (uM), U251 (CNS)
[21] = tested on: LN229; assay: [3H]-Thymidine incorporation in 96-well plates (Thy), LN229; settings: Homo sapiens, read-out: IC50 (uM), LN229 (CNS Cancer)
[22] = tested on: HT29; assay: tumor cell growth (CTG), HT29; settings: Homo sapiens
[23] = tested on: HEP3B; assay: tumor cell growth (CTG), HEP3B; settings: Homo sapiens, Hep3B
[24] = tested on: U87; assay: tumor cell growth, U87; settings: Homo sapiens, U-87 MG, read-out: IC50 (uM), U87 (CNS)

`COc1cccc2c1C(=O)c1c(O)c3c(c(O)c1C2=O)C[C@@](O)(C(=O)CO)C[C@@H]3O[C@H]1C[C@H](N)[C@H](O)[C@H](C)O1` [Doxorubicin, reference compound] showed an IC50 [1] of 0.68 µM, an IC50 [2] of 0.53 µM and an IC50 [3] of 0.3 µM. For the same molecule, the IC50 ([4]; 24 h) was 0.04 µM, the IC50 ([4]; 48 h) was 0.02 µM and the IC50 [5] was 0.28 µM. The IC50 [6] was 0.11 µM, the IC50 ([7]; NCI-H460, 24 h) was 0.09 µM and the IC50 ([7]; NCI-H460, 48 h) was 0.03 µM. The IC50 ([8]; PC-3, 24 h) was 0.04 µM, the IC50 ([8]; PC-3, 48 h) was 0.28 µM and the IC50 [9] was 0.46 µM. The IC50 ([10]; HT-29, 24 h) was 0.11 µM, the IC50 ([10]; HT-29, 48 h) was 0.12 µM and the IC50 ([11]; PC-3, 24 h, read-out: IC50 (uM), PC3 (Prostrate Cancer)) was 3.02 µM. The IC50 ([11]; PC-3, 48 h, read-out: IC50 (uM), PC3 (Prostrate Cancer)) was 0.93 µM, the IC50 ([11]; PC-3, 72 h, read-out: IC50 (uM), PC3 (Prostrate Cancer)) was 0.91 µM and the IC50 ([11]; PC-3, read-out: IC50 (uM), PC3 (Prostate C)) was 0.91 µM. For the same molecule, the IC50 ([12]; LN-229, 48 h, read-out: IC50 (uM), LN229 (CNS Cancer)) was 1.7 µM, the IC50 ([12]; LN-229, 72 h, read-out: IC50 (uM), LN229 (CNS Cancer)) was 0.61 µM and the IC50 ([12]; LN-229, read-out: IC50 (uM), LN-229 (CNS)) was 0.61 µM. For the same molecule, the IC50 [13] was 2.97 µM, the IC50 [14] was 0.38 µM and the IC50 [15] was 0.81 µM. For the same molecule, the IC50 ([16]; HCT-116, 24 h, read-out: IC50 (uM), HCT116 (Colon Cancer), 96 well CTG 1 day treatment) was 0.21 µM, the IC50 ([16]; HCT-116, 48 h, read-out: IC50 (uM), HCT116 (Colon Cancer), 96 well CTG 2 days treatment) was 0.23 µM and the IC50 ([16]; HCT-116, 72 h, read-out: IC50 (uM), HCT116 (Colon Cancer), 384well CTG 3 days treatment −1) was 0.06 µM. It also gave an IC50 ([16]; HCT-116, 72 h, read-out: IC50 (uM), HCT116 (Colon Cancer), 384well CTG 3 days treatment −2) of 0.21 µM, an IC50 ([16]; HCT-116, read-out: IC50 (uM), HCT116 (Colon C), Table 6) of 0.06 µM and an IC50 ([17]; HCT-116, 24 h) of 0.12 µM. For the same molecule, the IC50 ([17]; HCT-116, 48 h) was 0.14 µM, the IC50 ([18]; NCI-H460, 24 h, read-out: IC50 (uM), NCIH460 (NSCLC), 96 well CTG 1 day treatment) was 0.31 µM and the IC50 ([18]; NCI-H460, 48 h, read-out: IC50 (uM), NCIH460 (NSCLC), 96 well CTG 2 days treatment) was 0.12 µM. It also gave an IC50 ([18]; NCI-H460, 72 h, read-out: IC50 (uM), NCIH460 (NSCLC), 384well CTG 3 days treatment −1) of 0.02 µM, an IC50 ([18]; NCI-H460, 72 h, read-out: IC50 (uM), NCIH460 (NSCLC), 384well CTG 3 days treatment −2) of 0.11 µM and an IC50 ([18]; NCI-H460, read-out: IC50 (uM), H460 (NSCLC), Table 6) of 0.02 µM. It also gave an IC50 [19] of 0.17 µM, an IC50 [20] of 0.17 µM and an IC50 ([21]; LN-229, 24 h) of 0.1 µM. It also gave an IC50 ([21]; LN-229, 48 h) of 0.07 µM, an IC50 ([22]; HT-29, 48 h, read-out: IC50 (uM), HT29 (Colon Cancer)) of 0.52 µM and an IC50 ([22]; HT-29, 72 h, read-out: IC50 (uM), HT29 (Colon Cancer)) of 0.26 µM. The IC50 ([22]; HT-29, read-out: IC50 (uM), HT29 (Colon C)) was 0.26 µM, the IC50 ([23]; 48 h, read-out: IC50 (uM), HEP3B (Liver Cancer), 96 well CTG 2 days treatment) was 0.52 µM and the IC50 ([23]; 72 h, read-out: IC50 (uM), HEP3B (Liver Cancer), 384well CTG 3 days treatment −1) was 0.43 µM. The IC50 ([23]; 72 h, read-out: IC50 (uM), HEP3B (Liver Cancer), 384well CTG 3 days treatment −2) was 0.35 µM, the IC50 ([23]; read-out: IC50 (uM), HEP3B (Liver C), Table 6) was 0.43 µM and the IC50 [24] was 0.21 µM.
